These results are taken from patent US7981875B2, “2″ oxo-voruscharin and derivatives thereof” (priority 2002, dated 2011).

Series [1] has as its system A549. Put plainly: MTT test, overall cell growth. Type of series: cell-based, human. As to conditions: 72 hours of incubation. Here is the method:
(§1) In order to characterize the in vitro activities of the compounds according to the invention, MTT tests were carried out. The MTT test, which is a well-known test in the art, is an indirect technique that rapidly measures, i.e. within 5 days, the effect of a given product on the overall cell growth. This test measures the number of metabolically active living cells that are able to transform the MTT product (3-(4,5-dimethylthiazol-2-yl)-2,5 diphenyl tetrazolium bromide), having a yellowish color, to the blue product formazan dye by mitochondrial reduction. The amount of formazan obtained at the end of the experiment is measured with a spectrophotometer and is directly proportional to the number of living cells. Determination of the optical density enables a quantitative measurement of the effect of the investigated compounds as compared to the control condition (untreated cells) and to compare it to other reference compound. In the following examples different compounds according to the invention were tested and compared to the reference compound being uscharin.
(§2) Six human cancer cell lines, described in Table C, were tested in the presence of compounds according to the invention. These cell lines covered four histological cancer types, being Glioma, colon, lung and bladder cancer. The cells were allowed to grow in 96-well micro wells with a flat bottom with an amount of 100 μl of cell suspension per well in reason to 4000 cells/well depending on cell type. Each cell line was seeded in its own cell culture medium (Table C).
(§3) After a 24-hour period of incubation at 37° C., the culture medium is replaced by 100 μl of fresh medium in which the compound to be tested has been dissolved at different required concentrations. Different compounds were tested at 10^−9 M, 5×10^−9 M, 10^−8 M, 5×10^−8 M, 10^−7 M, 5×10^−7 M, 10^−6 M, 5×10^−6 M et 10^−5 M. Each experimental condition is carried out in hexaplicate. The compounds tested are 2″ oxo-voruscharin, and compounds B, C, D, E, H and I represented in Table B above.
(§4) After 72 hours of incubation at 37° C. with the compound (experimental conditions) or without the compound (control condition), the medium was replaced by 100 μl MTT at the concentration of 1 mg/ml dissolved in RPMI. The micro wells were subsequently incubated during 3 hours at 37° C. and centrifuged at 400 g during 10 minutes. The MTT was removed and formazan crystals formed, were dissolved in 100 μl DMSO. The micro wells were shaken for 5 minutes and read on a spectrophotometer at the wavelengths of 570 nm corresponding to the maximum formazan absorbance wavelength, and of 630 nm, which is the background noise wavelength.
(§5) For each experimental condition, the mean OD associated with the SEM (standard error of the mean) for each condition (6 wells) was calculated. The percentage of remaining living cells in comparison with the control was calculated. Results of these experiments are represented in FIGS. 2 to 8.
Background: Tetrazolium assays rely on reduction of a dye to a coloured formazan, in cell work by metabolically active cells.

For series [2], the system named is HCT-15. Put plainly: MTT test, overall cell growth. Type of series: cell-based, human. The protocol: as §1, §2, §3, §4, §5
Series [3] relates to Hs683. Put plainly: MTT test, overall cell growth. Type of series: cell-based, human. Here is the method: as §1, §2, §3, §4, §5
Series [4] relates to J82. Put plainly: MTT test, overall cell growth. Type of series: cell-based, human. Here is the method:
as §1, §2, §3, §4, §5

In series [5] the test system is LoVo. Kind of series: MTT test, overall cell growth. As to conditions: 72 hours of incubation. Type of series: cell-based, human. Here is the method: as §1, §2, §3, §4, §5
For series [6], the system named is U-373 MG. Put plainly: MTT test, overall cell growth. Type of series: cell-based, human. As to conditions: U-373, MTT, 72 hours of incubation. Here is the method: as §1, §2, §3, §4, §5
The test system of series [7] is HCT-15 human cancer cells. Put plainly: Cell cycle kinetics by flow cytometry (propidium iodide). Type of series: cell-based. Set-up: key to Effect on cell cycle kinetics, G0/G1 / Effect on cell cycle kinetics, S / Effect on cell cycle kinetics, G2/M: n.s. means no significant; ** means highly significant; *** very highly significant. Here is the method:
(§6) Cell lines were seeded in flasks (25 cm^2 area) containing 7 ml of culture medium. After 48 hours incubation at 37° C. the cell culture medium was replaced by a fresh medium in which the substance to be tested had been dissolved at the different concentrations required. Uscharin and 2″ oxo-voruscharin were tested at concentrations, which kill 50% and 30% of the cell population, represented by the IC50 and IC30 values, respectively. After 24 or 72 hours of treatment the cells were harvested in suspension, washed in Phosphate Buffer Saline (PBS) at 4° C. and permeabilized with 70% ethanol (at 4° C.) overnight at −20° C. The cells were then washed with PBS and incubated with propidium iodide solution (80 μg/ml) for 30 minutes at 37° C. and afterward at 4° C. overnight. Ribonuclease A (3% V/V) was added to the PI solution to break doubled-stranded RNA. The portrait of the cell cycle was established for each sample. Software incorporated into the flow cytometer was used to define precisely the percentage of cells in the different cell cycle phases. Each cell cycle phase was reported in terms of peak surface and calculated as a percentage. The surface of the entire cell cycle was 100%. Each experiment was carried out 3 times. The mean percentage of each different phase and the standard error of the related mean were calculated. Each cell cycle phase of a given condition was compared with the same cell cycle phase of control. The non-treated cells constituted control.
(§7) Uscharin and 2″ oxo-voruscharin are highly toxic to human tumor cell lines. The concentrations used in the flow cytometry experiments were chosen in accordance with the MTT results (example 2). Three human cancer cell lines, Hs683, J82, and HCT-15 were tested and doses that killed 30 and 50 percent of the cells were applied to investigate whether uscharin and 2″ oxo-voruscharin promoted an accumulation in one of the cell cycle phases when the cell cultures were treated for 24 or 72 hours with increasing concentrations of the compounds. The IC50 and IC30 values for uscharin and 2″ oxo-voruscharin corresponding to the three tested cell lines are represented in Table E.

Series [8] concerns Hs683 human cancer cells. The description is as above. Set-up: key to Effect on cell cycle kinetics, G0/G1 / Effect on cell cycle kinetics, S / Effect on cell cycle kinetics, G2/M: n.s. means no significant; ** means highly significant; *** very highly significant. Type of series: cell-based. Here is the method: as §6, §7
For series [9], the system named is J82 human cancer cells. The series is described as above. Type of series: cell-based. Set-up: key to Effect on cell cycle kinetics, G0/G1 / Effect on cell cycle kinetics, S / Effect on cell cycle kinetics, G2/M: n.s. means no significant; ** means highly significant; *** very highly significant. The protocol: as §6, §7
Series [10] is described as follows: Maximum Tolerated Dose in healthy mice. Type of series: in vivo. As to conditions: single administration in mice, healthy animals, 14 days post-injection. Here is the method: The Maximum Tolerated Dose (MTD) of a given drug is defined as the maximum amount of a drug which can be administered acutely (i.e. in one i.p., i.v., s.c. or per os single dose) to healthy animals, i.e. animals not grafted with tumors. The survival times and weights of the animals are recorded up to 14 days post-injection. Five different doses of each drug are used for the determination of the MTD index. When the MTD index is higher than 160 mg/kg (i.p. administration) the drug is usually considered to be non-toxic, and the highest dose administered to tumor-bearing mice is MTD/2=80 mg/kg. Each experimental group was composed of 3 mice for the determination of the MTD index.

Setting [11] is: HCT-15, MTT, 72 hours of incubation, read-out: IC50 value.
Setting [12] is: Hs683, MTT, 72 hours of incubation, read-out: IC50 value.
Setting [13] is: J82, MTT, 72 hours of incubation, read-out: IC50 value.

Read-outs that look alike come from different tables or passages of the source.

Broadly, the IC50 is the concentration that gives 50% inhibition. By IC30 is commonly meant the concentration needed for an effect of 30%. As for `C[C@@H]1CC2(N=CCS2)C2(O)O[C@@H]3C[C@]4(C=O)C5CC[C@]6(C)[C@@H](C7=CC(=O)OC7)CC[C@]6(O)[C@@H]5CC[C@H]4C[C@H]3O[C@@H]2O1` (some centres unmarked) [uscharin], the IC50 in series [1] (Homo sapiens) is 10 to 50 nM; in series [2] (Homo sapiens, HCT-15, MTT, 72 hours of incubation, read-out: IC50 value) it was 10 to 50 nM; in series [2] (Homo sapiens, HCT-15, Table E, concentration used for flow cytometry, chosen in accordance with MTT results, read-out: IC50), 43 nM; in [3] (Homo sapiens, Hs 683, Hs683, MTT, 72 hours of incubation, read-out: IC50 value), 1 to 5 nM; in series [3] (Homo sapiens, Hs 683, Hs683, Table E, concentration used for flow cytometry, chosen in accordance with MTT results, read-out: IC50) it was 170 nM; in series [4] (Homo sapiens, J82, MTT, 72 hours of incubation, read-out: IC50 value), 5000 to 10000 nM. In addition, the concentration for half-maximal inhibition (IC50) in series [4] (Homo sapiens, J82, Table E, concentration used for flow cytometry, chosen in accordance with MTT results, read-out: IC50) was 4300 nM; in series [5] (Homo sapiens), 5 to 10 nM; in series [6] (Homo sapiens, U373 MG) it was 10 to 50 nM. The IC30 is 8.5 nM in series [2] (HCT-15, Table E, concentration which kills 30% of the cell population); 43 nM in series [3] (Hs683, Table E, concentration which kills 30% of the cell population); 1700 nM in series [4] (J82, Table E, concentration which kills 30% of the cell population). Further, the “Effect on cell cycle kinetics, G0/G1” value in series [7] (HCT-15, 24 h) was “n.s”; in [7] (HCT-15, 72 h), “n.s”; in series [8] (Hs683, 24 h), “n.s”; in [8] (Hs683, 72 h) it was “n.s”; in series [9] (J82, 24 h) it was “n.s”; in [9] (J82, 72 h), “n.s”. In addition, the “Effect on cell cycle kinetics, G2/M” value in [7] (HCT-15, 24 h) was “n.s”; in [7] (HCT-15, 72 h) it was “n.s”; in [8] (Hs683, 24 h) it was “***”; in [8] (Hs683, 72 h) it was “n.s”; in [9] (J82, 24 h), “n.s”; in series [9] (J82, 72 h), “n.s”. The “Effect on cell cycle kinetics, S” value is “n.s” in series [7] (HCT-15, 24 h); “**” in [7] (HCT-15, 72 h); “***” in [8] (Hs683, 24 h); “***” in series [8] (Hs683, 72 h); “***” in series [9] (J82, 24 h); “***” in series [9] (J82, 72 h). Also, the “cell cycle, S-phase” value is recorded as “accumulation in S-phase” in series [7] (HCT-15, 72 hours, highest concentration tested (4.3×10^−8 M uscharin, 1.2×10^−8 M 2″oxo-voruscharin)); “accumulation of cells in S-phase” in series [8] (Hs683, 1.7×10^−7 M for 24 and 72 hours, statistically significant). Further, the “cell cycle, G2/M-phase” value in series [8] (Hs683, 1.7×10^−7 M for 24 hours) is given as “significant accumulation in G2/M-phase”. The “cell cycle, S-population” value in [9] (J82, independent of the concentrations applied or the timing of treatment) was “significant increase in the S-population”.

Turning to `CC1CC2(N=CCS2)C2(O)OC3CC4(CO)C(CCC5C4CCC4(C)C(C6=CC(=O)OC6)CCC54O)CC3OC2O1` (centres unmarked) [Compound D], the half-inhibitory concentration (IC50) in [1] lay within 10 to 50 nM; in series [2] (setting [11]), 10 to 50 nM; in [3] (setting [12]), 1 to 5 nM; in series [4] (setting [13]), 5000 to 10000 nM; in series [5], 1 to 5 nM; in series [6], 10 to 50 nM. In series [10], this molecule came in with an MTD index of 10 mg/kg.

As for `CC(=O)OCC12CC3OC4(O)C(OC(C)CC45N=CCS5)OC3CC1CCC1C2CCC2(C)C(C3=CC(=O)OC3)CCC12O` (centres unmarked) [Compound E], the IC50 in series [1] was 1000 to 5000 nM; in series [2] (setting [11]), 1000 to 5000 nM; in [3] (setting [12]) it was 1000 to 5000 nM; in series [4] (setting [13]) it was > 10000 nM; in [5] it was 1000 to 5000 nM; in series [6], 1000 to 5000 nM.

In the case of `CC(=O)OCC12CC3OC4(O)C(OC(C)CC45NC(=O)CS5)OC3CC1CCC1C2CCC2(C)C(C3=CC(=O)OC3)CCC12O` (centres unmarked) [Compound C], the 50% inhibitory concentration (IC50) in [1] was 1000 to 5000 nM; in [2] (setting [11]), 1000 to 5000 nM; in [3] (setting [12]), 1000 to 5000 nM; in series [4] (setting [13]) it was > 10000 nM; in [5], 1000 to 5000 nM; in series [6], 1000 to 5000 nM. Also, the MTD index in [10] is > 40 mg/kg.

As for `CC1CC2(NC(CC(=O)c3ccccc3)CS2)C2(O)OC3CC4(CO)C(CCC5C4CCC4(C)C(C6=CC(=O)OC6)CCC54O)CC3OC2O1` (single isomer, unassigned) [Compound I], the IC50 fell in the range of 1 to 5 nM in [1]; 10 to 50 nM in [2] (setting [11]); 1 to 5 nM in series [3] (setting [12]); 1000 to 5000 nM in [4] (setting [13]); 10 to 50 nM in series [5]; 10 to 50 nM in series [6]. The same molecule yielded an MTD index in series [10] of 80 mg/kg.

For `CC1CC2(NC(CC(=O)c3ccccc3)CS2)C2(O)OC3CC4(CO)C(CCC5C4CCC4(C)C(C6=CC(=O)OC6)CCC54O)CC3OC2O1` (single isomer, unassigned) [Compound H], the 50% inhibitory concentration (IC50) was 1 to 5 nM in series [1]; 10 to 50 nM in [2] (setting [11]); 1 to 5 nM in series [3] (setting [12]); 1000 to 5000 nM in series [4] (setting [13]); 10 to 50 nM in series [5]; 10 to 50 nM in [6]. The same molecule came in with an MTD index in series [10] of 80 mg/kg.
